From the SangsterLogP compilation

Assay: method code SF-AS, from DOI: 10.1002/chin.198834177
Settings: pH 5.6

| logD | SMILES |
| --- | --- |
| 3.63 | c1ccc2nn(C3CCCCC3)nc2c1 |
| 2.28 | CCCCC(C(N)=O)n1nc2ccccc2n1 (stereo not given) |
| 2.27 | CCOC(=O)CC(C)n1nnc2ccccc21 (stereo not given) |
| 0.88 | CCC(C(N)=O)n1nnc2ccccc21 (stereo not given) |
| 3.11 | c1ccc2c(c1)nnn2C1CCCCC1 |
| 1.16 | CC(C)(C(N)=O)n1nc2ccccc2n1 |
| 0.76 | CC(C)(C(N)=O)n1nnc2ccccc21 |
| 2.38 | CCOC(=O)C(C)n1nc2ccccc2n1 (stereo not given) |
| 0.75 | CC(CC(N)=O)n1nnc2ccccc21 (stereo not given) |
| 1.15 | CC(CCC(N)=O)n1nnc2ccccc21 (stereo not given) |
| 2.82 | CCCC(C(=O)OCC)n1nnc2ccccc21 (stereo not given) |
| 2.6 | CCOC(=O)C(C)(C)n1nnc2ccccc21 |
| 3.38 | CCCC(C(=O)OCC)n1nc2ccccc2n1 (stereo not given) |
| 1 | CC(CC(N)=O)n1nc2ccccc2n1 (stereo not given) |
| 2.98 | CCOC(=O)C(C)(C)n1nc2ccccc2n1 |
| 1.25 | CCC(C(N)=O)n1nc2ccccc2n1 (stereo not given) |
| 3.32 | CCCCC(C(=O)OCC)n1nnc2ccccc21 (stereo not given) |
| 2.7 | CCOC(=O)CC(C)n1nc2ccccc2n1 (stereo not given) |
| 1.38 | CCCC(C(N)=O)n1nnc2ccccc21 (stereo not given) |
| 2.34 | CCOC(=O)C(CC)n1nnc2ccccc21 (stereo not given) |
| 3.88 | CCCCC(C(=O)OCC)n1nc2ccccc2n1 (stereo not given) |
| 1.88 | CCCCC(C(N)=O)n1nnc2ccccc21 (stereo not given) |
| 1.75 | CCCC(C(N)=O)n1nc2ccccc2n1 (stereo not given) |
| 1.35 | CC(CCC(N)=O)n1nc2ccccc2n1 (stereo not given) |
| 2.88 | CCOC(=O)C(CC)n1nc2ccccc2n1 (stereo not given) |
| 2.64 | CCOCC(=O)CCC(C)n1nnc2ccccc21 (stereo not given) |
| 3.05 | CCOC(=O)CCC(C)n1nc2ccccc2n1 (stereo not given) |
| 0.86 | CC(C(N)=O)n1nc2ccccc2n1 (stereo not given) |
| 1.87 | CCOC(=O)C(C)n1nnc2ccccc21 (stereo not given) |
| 0.35 | CC(C(N)=O)n1nnc2ccccc21 (stereo not given) |
